Results as given in US6420330B1, “Use of quaternary carboxylic acid alkanolamine ester salts as microbicide agents” (Cognis Deutschland GmbH, priority 1997, dated 2002).

How the values were obtained:
Assay in all cases: DGHM suspension test, microbicidal activity
Format in all cases: cell-based
[1] = system: Staphylococcus aureus ATCC 6538
Experimental: (§1) The microbicidal activity of the quanterary carboxylic acid alkanolamine ester salts used in accordance with the invention was tested against the following selected test germs:
(§2) The effectiveness of the compound to be tested was determined by the suspension test in accordance with the guidelines of the Deutsche Gesellschaft for Hygiene and Mikrobiologie (DGHM). Test solutions containing quatemary carboxylic acid alkanolamine ester salts in the quantities shown in the Tables of 50, 100, 200, 400 and 800 mg/l were prepared using water with a hardness of 17° dH and optionally isopropanol.
(§3) At room temperatures, quantities of 0.1 ml test germ suspension were pipetted into test tubes containing 10 ml of the test solutions described above and mixed. After various contact times of 5, 15, 30 and 60 minutes, 1 ml of material was taken from the test tubes by pipette and transferred to 9 ml inactivator solution (inactivators: 3.0% Tween, 0.3% lecithin, 0.1% histidine). After in activation for at least 5 and at most 30 minutes, the living germ count was determined by plating out onto casein peptone-soybean flour peptone (CaSo)-agar plates. Using a spiral plater, the inactivating mixture was directly plated out onto CaSo-agar. The samples were incubated for 24 to 72 hours at 37° C. and macroscopically evaluated for growth. The destruction time or the residual germ count was determined in this way. The germ count of an unchallenged water control is related to the germ count of the inactivated test solution taking the dilution into account. The higher the value, the better the microbicidal effect. The symbol < means that the logarithmic reductuon factor is below the indicated value or, in the case of the symbol >, above the indicated value. The abbreviation CU stands for “concentration used”.

[2] = system: Candida albicans ATCC 10231
Experimental: as §1, §2, §3

[3] = system: Pseudomonas aeruginosa ATCC 15442
Experimental: as §1, §2, §3

[4] = CU 50 mg/l, contact time 5 mins.
[5] = CU 50 mg/l, contact time 15 mins.
[6] = CU 50 mg/l, contact time 30 mins.
[7] = CU 50 mg/l, contact time 60 mins.
[8] = CU 100 mg/l, contact time 5 mins.
[9] = CU 100 mg/l, contact time 15 mins.
[10] = CU 100 mg/l, contact time 30 mins.
[11] = CU 100 mg/l, contact time 60 mins.
[12] = CU 200 mg/l, contact time 5 mins.
[13] = CU 200 mg/l, contact time 15 mins.
[14] = CU 200 mg/l, contact time 30 mins.
[15] = CU 200 mg/l, contact time 60 mins.
[16] = CU 400 mg/l, contact time 5 mins.
[17] = CU 400 mg/l, contact time 15 mins.
[18] = CU 400 mg/l, contact time 30 mins.
[19] = CU 400 mg/l, contact time 60 mins.
[20] = CU 800 mg/l, contact time 5 mins.
[21] = CU 800 mg/l, contact time 15 mins.
[22] = CU 800 mg/l, contact time 30 mins.
[23] = CU 800 mg/l, contact time 60 mins.

Structure (SMILES): CCCCCCCC(=O)OCC[N+](C)(C)CCOC(=O)CCCCCCC.COS(=O)(=O)[O-] [Example 1, dimethyl diethanolammonium dicaprylic acid ester methosulfate]
- logarithmic reduction factor [1, 4]: <1.32
- logarithmic reduction factor [1, 5]: <1.71
- logarithmic reduction factor [1, 6]: <1.23
- logarithmic reduction factor [1, 7]: <1.32
- logarithmic reduction factor [1, 8]: <1.32
- logarithmic reduction factor [1, 9]: <1.71
- logarithmic reduction factor [1, 10]: <1.23
- logarithmic reduction factor [1, 11]: <1.32
- logarithmic reduction factor [1, 12]: <1.32
- logarithmic reduction factor [1, 13]: <1.71
- logarithmic reduction factor [1, 14]: <1.23
- logarithmic reduction factor [1, 15]: <1.32
- logarithmic reduction factor [1, 16]: <1.32
- logarithmic reduction factor [1, 17]: <1.1
- logarithmic reduction factor [1, 18]: 1.95
- logarithmic reduction factor [1, 19]: 3.54
- logarithmic reduction factor [1, 20]: <1.32
- logarithmic reduction factor [1, 21]: <3.59
- logarithmic reduction factor [1, 22]: <3.96
- logarithmic reduction factor [1, 23]: >5.32
- logarithmic reduction factor [2, 4]: <0.50
- logarithmic reduction factor [2, 5]: <0.37
- logarithmic reduction factor [2, 6]: <0.35
- logarithmic reduction factor [2, 7]: <0.36
- logarithmic reduction factor [2, 8]: <0.50
- logarithmic reduction factor [2, 9]: 0.41
- logarithmic reduction factor [2, 10]: 0.60
- logarithmic reduction factor [2, 11]: 0.70
- logarithmic reduction factor [2, 12]: 1.53
- logarithmic reduction factor [2, 13]: 2.53
- logarithmic reduction factor [2, 14]: 2.91
- logarithmic reduction factor [2, 15]: 3.61
- logarithmic reduction factor [2, 16]: >4.5
- logarithmic reduction factor [2, 17]: >4.37
- logarithmic reduction factor [2, 18]: >4.35
- logarithmic reduction factor [2, 19]: >4.36
- logarithmic reduction factor [2, 20]: >4.50
- logarithmic reduction factor [2, 21]: >4.37
- logarithmic reduction factor [2, 22]: >4.35
- logarithmic reduction factor [2, 23]: >4.36
- logarithmic reduction factor [3, 4]: <1.83
- logarithmic reduction factor [3, 5]: <1.47
- logarithmic reduction factor [3, 6]: <1.55
- logarithmic reduction factor [3, 7]: <1.56
- logarithmic reduction factor [3, 8]: <1.83
- logarithmic reduction factor [3, 9]: <1.47
- logarithmic reduction factor [3, 10]: <1.55
- logarithmic reduction factor [3, 11]: <1.56
- logarithmic reduction factor [3, 12]: <1.83
- logarithmic reduction factor [3, 13]: <1.47
- logarithmic reduction factor [3, 14]: <1.55
- logarithmic reduction factor [3, 15]: <1.56
- logarithmic reduction factor [3, 16]: <1.83
- logarithmic reduction factor [3, 17]: <1.47
- logarithmic reduction factor [3, 18]: 3.22
- logarithmic reduction factor [3, 19]: 4.41
- logarithmic reduction factor [3, 20]: >5.83
- logarithmic reduction factor [3, 21]: >5.47
- logarithmic reduction factor [3, 22]: >5.55
- logarithmic reduction factor [3, 23]: >5.56
